Measurements as given in paper PMC12603982 (Angewandte Chemie (International Ed. in English), 2025).
Like-named read-outs stand apart in the source and are kept apart here. Each block holds one molecule with its values, some of them ahead of it. Starred links: 1 amine or outer side, 2 acyl side, 3 side chain; linkers in the order of their positions; H or OH if unused. Positions of bridges follow the written chain, without caps; N, C: chain ends. Non-standard residues stand in square brackets, D forms with d. Residues, ends and D or L forms follow the SMILES beside them. Groups on a side chain read outwards from the residue. *: point of attachment. X3 = CCN1C(=CC=CC=CC2=[N+](CCCCCC(=O)*)c3ccc(S(=O)(=O)[O-])cc3C2(C)C)C(C)(C)c2cc(S(=O)(=O)O)ccc21; X1 = CCN1C(=CC=CC2=[N+](CCCCCC(=O)*)c3ccc(S(=O)(=O)O)cc3C2(C)C)C(C)(C)c2cc(S(=O)(=O)[O-])ccc21; X4 = CCN1C(=CC=CC2=[N+](CCCCCC(=O)*)c3ccc(S(=O)(=O)[O-])cc3C2(C)C)C(C)(C)c2cc(S(=O)(=O)O)ccc21; d(εLys) = N[C@H](CCCCN[*:1])C(=O)[*:2]; PEG5 = NCCOCCOCCOCCOCCOCCC(=O)O; Orn = NCCC[C@H](N)C(=O)O; Mpa = O=C(O)CCS

Columns and labels:
hOTR [1] = molecular target: T1, hOTR (Homo sapiens, UniProt P30559); test: Radioligand displacement and saturation binding, membranes of HEK293 cells stably expressing hOTR, [3H]-OT; settings: [3H]-OT, mean ± SD, duplicates, at least three independent experiments
T1 construct: expressed in transfected cells
T1 sequence (P30559 1-389): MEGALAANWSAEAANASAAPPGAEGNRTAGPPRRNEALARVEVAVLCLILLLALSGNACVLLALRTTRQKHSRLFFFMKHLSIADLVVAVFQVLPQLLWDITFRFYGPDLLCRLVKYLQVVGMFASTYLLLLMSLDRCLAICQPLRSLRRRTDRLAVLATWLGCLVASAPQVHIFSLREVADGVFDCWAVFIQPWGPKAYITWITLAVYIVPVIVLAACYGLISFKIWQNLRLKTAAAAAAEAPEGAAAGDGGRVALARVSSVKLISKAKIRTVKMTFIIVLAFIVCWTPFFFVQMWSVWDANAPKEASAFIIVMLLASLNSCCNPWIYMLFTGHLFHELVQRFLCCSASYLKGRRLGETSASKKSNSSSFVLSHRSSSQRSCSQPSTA
Procedure: (§1) Membrane preparation for radioligand assays. HEK293 cells were used for stable expression of GFP-tagged
(§2) human OTR, V1aR, V1bR, and V2R isoforms and transient expression of murine OTR, V1aR, V1bR, and V2R
(§3) isoforms. Cell culture work was performed under sterile conditions with DMEM high glucose containing 10%
(§4) FBS, and 50 U/mL P/S. Cells were cultured in 10 cm diameter cell culture dishes at 37°C in a humidified
(§5) atmosphere with 5% CO2, and cells were passaged at 70-90% confluency.
(§6) medium of stable cell lines at 0.5 mg/mL to sustain selection pressure, and cells were harvested at 90% confluency
(§7) for membrane preparation. For transient expression of murine receptors, 60% confluent wild-type HEK293 cells
(§8) were transfected using the jetPRIME transfection reagent according to the manufacturer’s protocol and harvested
(§9) 48 h post-transfection. For membrane preparation, cells were washed with ice-cold PBS pH 7.4, scraped into fresh
(§10) PBS on ice, and centrifuged at 4°C and 178 g for 10 min. The pellet was resuspended in a TRIS buffer solution
ice-cold water bath sonicator. The obtained solution was centrifuged for 20 min at 54,192 g and 4°C. The obtained
pellet was resuspended in TRIS buffer without protease inhibitors, homogenized with an ultrasonicator, aliquoted,
and stored at -80°C until further use. A BCA assay was used to determine the protein concentration of the
Radioligand displacement and saturation experiments. Assay solutions consisting of competing ligand,
radioligand, and membrane preparation were incubated for 1 h at 37°C. Standard binding buffer solution (50 mM
TRIS, 5 mM MgCl2, 0.1% BSA, pH 7.4) was used to prepare all dilutions; the final assay volume was 200 µL.
concentrations were 8 μg/vial for hOTR, 5 μg/vial for hV1aR, and 3 μg/vial for hV1bR and hV2R, respectively , and
4 μg/vial for mOTR, 1.5 μg/vial for m V1aR, 3 μg/vial for mV 1bR, and 10 μg/vial for mV 2R. To assess non-specific
Specific binding was determined by
subtraction of the non-specific binding from the total binding. In radioligand displacement experiments, semi -
logarithmically spaced concentrations of respective test ligands were applied to determine K i values based on
assessed Kd values of radiotracers and by fitting the data to a three -parameter logistic Hill equation and applying
the Cheng and Prusoff approximation. 10 In case of human receptors from stable cell lines, Kd and Bmax values were
In case of murine receptors from transient
was performed using GraphPad Prism (version 9.5.1) . After incubation, membranes were filtered and washed on
a Skatron Cell Harvester using polyethyleneimine -coated glass fiber filters (type B, soaked in 0.1% aqueous
1 mM MgCl2, pH 7.4, 4°C). The soaked filter pieces were transferred into counter vials, and 2 mL of scintillation
cocktail (LSC Universalcocktail) was added to each vial. After 1 h incubation at 25°C on a shaker, radioligand
concentration was determined using a Tri -Carb liquid scintillation analyzer.
response curves were obtained from radioligand displacement experiments of membrane preparations of HEK293
Values were normalized to the percentage
of maximum binding (i.e., no competing ligand present). Specific binding was obtained from the subtraction of
non-specific binding from total binding. K i values were derived from one-site-fitted competition binding curves.

[2] = system: parent HEK293 cells lacking hOTR; settings: 100 nM
[3] = system: CREB phosphorylation via hOTR-GFP; test: In vitro phosphorylation assay (pCREB) in hOTR-GFP HEK293 cells; format: cell-based, human; settings: range 1 nM to 1 µM
hOTR-GFP in HEK293 cells [4] = molecular target: T2, hOTR-GFP in HEK293 cells (Homo sapiens, UniProt P30559); test: hOTR-GFP internalization and tracer uptake, confocal microscopy after fixation/ICC; format: cell-based; parameters: expressed in transfected cells; settings: for hOTR-GFP internalization / Tracer retention after ICC protocols: 100 nM; for Tracer retention after ICC protocols: 1 h stimulation, formaldehyde fixation, PBS washing; for Tracer signal after prolonged stimulation: 24 h treatment, post-fixation ICC
T2 sequence (P30559 1-389): T1 sequence (P30559 1-389)
Source text: To validate the application scope of our tracers for biological systems and post‐hoc imaging, we used HEK293 cells stably overexpressing human OTR or V1aR, tagged with a C‐terminal fused green fluorescent protein to visualize receptor trafficking (hOTR‐GFP or hV1aR‐GFP, respectively).
subsequently washed with PBS and processed for immunocytochemistry.
Immunocytochemistry and imaging. Unspecific protein binding was quenched with 5% normal donkey serum
(Jackson ImmunoResearch), 2% bovine serum albumin (Sigma-Aldrich, Merck), and 0.2% Triton X-100 (Sigma-
Aldrich, Merck) in PBS. Next, cells were exposed to primary antibody cocktails containing FITC-conjugated goat-
anti-GF (1:2000, Sigma-Aldrich, Merck) and mouse pCREB (1:300, Sigma-Aldrich, Merck) in PBS with 2%
normal donkey serum, 0.1% BSA, and 0.2% Triton X-100 overnight at 4°C. After three PBS washing steps, wells
were incubated with secondary antibody cocktails (1:400, Jackson Immuno Research) containing suitable
were mounted with glycerol gelatin (Sigma-Aldrich, Merck) and imaged on a Zeiss LSM 780/880 confocal
microscope (Zeiss). Images were analyzed and equally contrasted for visualization with ZEN Pro (Zeiss) and

hOTR [5] = molecular target: T1, hOTR; parameters: method as in PMID 8126695; settings: cited from earlier work
[6] = system: rat embryonic hippocampal neurons; test: Tracer uptake in primary rat hippocampal neurons; format: cell-based; settings: 100 nM, 1 h; E17.5 neurons cultured 14 days
Procedure: Finally, we evaluated whether tracer (11) is applicable in primary cells endogenously expressing OTR.
Primary UtSMC and hippocampal neuronal cultures.
Muscle Cell Basal Medium 2 (PromoCell), including supplements (PromoCell) and P/S (Gibco) at 37°C and 5%
CO2. Cells were trypsinized with 0.1% Trypsin/EDTA (Gibco) and plated on glass -bottom 96-well plates (CellVis)
at a density of 10,000 cells/well in full growth medium. The next day, cells were stimulated with tracer ( 11), OTA ,
dissociated with flame -polishe d Pasteur pipettes in Hank’s balanced salt solution (HBSS, Gibco). Tissue pieces
were subsequently enzymatically dissociated with 0.1% Trypsin/EDTA (Gibco) in Neurobasal A (NBA, Gibco)
containing 1,000U/mL DNase (Sigma) for 5 min at 37°C. Cells were triturated with flamed Pasteur pipettes,
filtered through a 40 µm nylon mesh ( Thermo Fisher Scientific ), centrifuged at 200 g for 5 min, and washed up to
three times in NBA containing P/S (Gibco), GlutaMax (Gibco) , and B27 supplement (Gibco). Cells were plated at
20,000 cells/well on PDL -coated (Sigma) glass -bottom black 96 -well microscopy plates (Cellvis) and grown at
37°C with 5% CO 2. Half of the medium was replaced every 3 -4 days. After 13 -14 days in vitro , neuronal cultures
were exposed to 100 nM tracer ( 11) for one hour, with or without 30-min pretreatment with 10 µM of the peptide
antagonist OTA. […]

hV1bR = molecular target: T3, hV1bR (Homo sapiens, UniProt P47901); test: Radioligand displacement and saturation binding, membranes of HEK293 cells stably expressing hV1bR, [3H]-VP
T3 construct: expressed in transfected cells; membrane preparation
T3 sequence (P47901 1-424): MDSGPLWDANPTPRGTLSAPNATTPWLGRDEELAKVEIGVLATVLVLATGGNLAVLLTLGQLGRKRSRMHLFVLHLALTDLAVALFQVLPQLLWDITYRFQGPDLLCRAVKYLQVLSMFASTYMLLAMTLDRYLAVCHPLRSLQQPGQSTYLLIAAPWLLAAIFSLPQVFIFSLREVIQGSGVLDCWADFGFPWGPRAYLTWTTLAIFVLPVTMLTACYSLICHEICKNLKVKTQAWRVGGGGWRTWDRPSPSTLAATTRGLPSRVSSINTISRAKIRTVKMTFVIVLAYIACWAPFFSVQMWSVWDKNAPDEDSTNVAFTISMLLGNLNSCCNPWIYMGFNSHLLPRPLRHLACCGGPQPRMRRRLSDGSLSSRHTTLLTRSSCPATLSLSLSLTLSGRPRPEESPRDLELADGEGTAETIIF
Procedure: as §1, §2, §3, §4, §5, §6, §7, §8, §9, §10
(§11) ice-cold water bath sonicator. The obtained solution was centrifuged for 20 min at 54,192 g and 4°C. The obtained […]
Specific binding was determined by […]
(§12) assessed Kd values of radiotracers and by fitting the data to a three -parameter logistic Hill equation and applying […]
(§13) concentration was determined using a Tri -Carb liquid scintillation analyzer. […]

hV2R = molecular target: T4, hV2R (Homo sapiens, UniProt P30518); test: Radioligand displacement and saturation binding, membranes of HEK293 cells stably expressing hV2R, [3H]-VP
T4 construct: expressed in transfected cells; membrane preparation
T4 sequence (P30518 whole entry): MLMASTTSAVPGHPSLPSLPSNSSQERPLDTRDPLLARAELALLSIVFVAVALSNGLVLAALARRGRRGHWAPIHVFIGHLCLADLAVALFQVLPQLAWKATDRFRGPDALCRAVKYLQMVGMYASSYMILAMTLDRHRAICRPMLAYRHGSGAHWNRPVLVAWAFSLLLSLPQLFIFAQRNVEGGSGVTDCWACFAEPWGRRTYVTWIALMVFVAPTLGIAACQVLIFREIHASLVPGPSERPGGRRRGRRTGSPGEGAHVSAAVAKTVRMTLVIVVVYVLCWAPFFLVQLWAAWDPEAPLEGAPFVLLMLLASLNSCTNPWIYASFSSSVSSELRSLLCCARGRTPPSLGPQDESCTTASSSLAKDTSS
Procedure: as §1, §2, §3, §4, §5, §6, §7, §8, §9, §10, §11
Specific binding was determined by […]
as §12, §13

hV1aR = molecular target: T5, hV1aR (Homo sapiens, UniProt P37288); test: Radioligand displacement and saturation binding, membranes of HEK293 cells stably expressing hV1aR, [3H]-VP
T5 construct: expressed in transfected cells
T5 sequence (P37288 whole entry): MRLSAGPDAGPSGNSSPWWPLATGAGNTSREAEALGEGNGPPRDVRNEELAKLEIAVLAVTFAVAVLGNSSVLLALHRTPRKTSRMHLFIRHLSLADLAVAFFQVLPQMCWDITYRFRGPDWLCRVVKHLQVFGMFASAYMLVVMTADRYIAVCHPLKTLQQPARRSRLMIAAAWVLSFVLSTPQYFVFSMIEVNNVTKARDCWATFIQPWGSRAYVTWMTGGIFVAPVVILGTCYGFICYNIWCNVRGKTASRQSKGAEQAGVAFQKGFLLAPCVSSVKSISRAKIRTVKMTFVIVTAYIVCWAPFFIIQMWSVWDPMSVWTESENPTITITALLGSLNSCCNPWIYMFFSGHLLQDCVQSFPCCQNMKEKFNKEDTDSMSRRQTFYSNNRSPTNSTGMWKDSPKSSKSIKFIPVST
Procedure: as §1, §2, §3, §4, §5, §6, §7, §8, §9, §10, §11
Specific binding was determined by […]
as §12, §13

hOTR-GFP in HEK293 cells [7] = molecular target: T2, hOTR-GFP in HEK293 cells; test: Live single-particle tracking (TIRFM, uPAINT) of hOTR
Procedure: We first exposed hOTR‐GFP cells to 10 and 100 nM of tracer (11) during acquisition with a ZEISS Lattice SIM microscope (Movies S1 and S2). […] To further disentangle the dynamics of our tracer‐mediated OTR engagement and trafficking, we evaluated its applicability in single‐particle tracking (SPT) in living cells. We cultured HEK293 (parent cells) and HEK293 cells stably expressing hOTR‐GFP (HEK293‐hOTR‐GFP) and performed total internal reflection microscopy (TIRFM) SPT universal point accumulation imaging in nanoscale topography (uPAINT) following the addition of 1 nM of tracer (10). […] This concentration was selected to facilitate the detection and tracking of single molecules of the fluorescent agonist tracer following binding to hOTR at the plasma membrane by uPAINT. […] We first assessed the number of tracks (indicative of the number of single molecules detected/tracked). […] We quantified the mean squared displacement of each trajectory to calculate its apparent diffusion coefficient. The diffusion coefficient of each trajectory of the tracer bound to hOTR was plotted as a frequency distribution (Figure 7b2 ).
Live cell imaging. For 3D live cell imaging, attached and serum -starved HEK293-hOTR-GFP cells in 96-well
glass bottom plates were imaged on a ZEISS Lattice SIM Microscope using a 40x oil objective and SIM 2 post- […]

[8] = molecular target: hV1aR-GFP in HEK293 cells (Homo sapiens, UniProt P37288); test: Tracer signal and internalization in hV1aR-GFP HEK293 cells post ICC; settings: 100 nM
Sequence of hV1aR-GFP in HEK293 cells (P37288 whole entry): as above

Compound: CC[C@H](C)[C@@H]1NC(=O)[C@H](Cc2ccc(O)cc2)NC(=O)CCSSC[C@@H](C(=O)N2CCC[C@H]2C(=O)N[C@@H](CCCNC(=O)CCOCCOCCOCCOCCOCCNC(=O)CCOCCOCCOCCOCCOCCNC(=O)[C@H](N)CCCCNC(=O)CCCCC[N+]2=C(C=CC=C3N(CC)c4ccc(S(=O)(=O)O)cc4C3(C)C)C(C)(C)c3cc(S(=O)(=O)[O-])ccc32)C(=O)NCC(N)=O)NC(=O)[C@H](CC(N)=O)NC(=O)[C@H](CCC(N)=O)NC1=O [Compound 9, d(Orn)^8OT‐[PEG5‐PEG5‐k^ε‐Cy3s]^8] ([Mpa]YIQNCP[Orn]([PEG5-PEG5-d(εLys)-X4])G-NH2; disulfide 1-6)
Ki (hOTR [1]; read-out: Ki hOTR): 1.5 ± 0.5 nM

Compound: CC[C@H](C)[C@@H]1NC(=O)[C@H](Cc2ccc(O)cc2)NC(=O)CCSSC[C@@H](C(=O)N2CCC[C@H]2C(=O)N[C@@H](CCCNC(=O)CCOCCOCCOCCOCCOCCNC(=O)[C@H](N)CCCCNC(=O)CCCCC[N+]2=C(C=CC=CC=C3N(CC)c4ccc(S(=O)(=O)O)cc4C3(C)C)C(C)(C)c3cc(S(=O)(=O)[O-])ccc32)C(=O)NCC(N)=O)NC(=O)[C@H](CC(N)=O)NC(=O)[C@H](CCC(N)=O)NC1=O [Compound 7, d(Orn)^8OT‐[PEG5‐k^ε‐Cy5s]^8] ([Mpa]YIQNCP[Orn]([PEG5-d(εLys)-X3])G-NH2; disulfide 1-6)
hOTR-GFP internalization (hOTR-GFP in HEK293 cells [4]): significant hOTR‐GFP internalization
Tracer retention after ICC protocols (hOTR-GFP in HEK293 cells [4]): remained present and detectable
Tracer signal after prolonged stimulation (hOTR-GFP in HEK293 cells [4]): Signal intensity was increased

Compound: Cc1ccccc1N1CCN(S(=O)(=O)C[C@]23CC[C@H](C[C@@H]2NC(=O)[C@@H](N)CCS(C)(=O)=O)C3(C)C)CC1 [L368,899, reference compound]
IC50 (hOTR [5]): 26 nM
Effect of antagonist pretreatment on tracer (11) uptake (hOTR-GFP in HEK293 cells [4]; 10 µM, 30 min pretreatment): completely prevented tracer (11) uptake

Compound: CC[C@H](C)[C@@H]1NC(=O)CCSSC[C@@H](C(=O)N2CCC[C@H]2C(=O)N[C@@H](CCCNC(=O)[C@@H](CC(=O)O)NC(=O)CCOCCOCCOCCOCCOCCNC(=O)[C@H](N)CCCCNC(=O)CCCCC[N+]2=C(C=CC=C3N(CC)c4ccc(S(=O)(=O)[O-])cc4C3(C)C)C(C)(C)c3cc(S(=O)(=O)O)ccc32)C(=O)NCC(N)=O)NC(=O)[C@H](CCC(N)=O)NC(=O)[C@H](Cc2ccc(O)cc2)NC(=O)[C@H](CC(N)=O)NC1=O [Scrambled tracer (SCR), dCINYQCP(Orn)G‐[d‐PEG5‐k^ε‐Cy3s]^8] ([Mpa]INYQCP[Orn]([dD-PEG5-d(εLys)-X1])G-NH2; disulfide 1-6)
Ki (hOTR [1]; Ki hOTR): > 10000 nM
Tracer uptake in rat hippocampal neurons [6]: not taken up by neurons
Ki (hV1bR): > 10000 nM
hOTR-GFP internalization (hOTR-GFP in HEK293 cells [4]): did not induce hOTR‐GFP internalization or accumulate in the cell cytoplasm
Ki (hV2R): > 10000 nM
Ki (hV1aR): > 10000 nM

Compound: CC[C@H](C)[C@@H]1NC(=O)[C@H](Cc2ccc(O)cc2)NC(=O)CCSSC[C@@H](C(=O)N2CCC[C@H]2C(=O)N[C@@H](CCCNC(=O)[C@@H](CC(=O)O)NC(=O)CCOCCOCCOCCOCCOCCNC(=O)CCCCC[N+]2=C(C=CC=CC=C3N(CC)c4ccc(S(=O)(=O)O)cc4C3(C)C)C(C)(C)c3cc(S(=O)(=O)[O-])ccc32)C(=O)NCC(N)=O)NC(=O)[C@H](CC(N)=O)NC(=O)[C@H](CCC(N)=O)NC1=O [Compound 10, d(Orn)^8OT‐[d‐PEG5‐Cy5s]^8] ([Mpa]YIQNCP[Orn]([dD-PEG5-X3])G-NH2; disulfide 1-6)
Average (apparent) diffusion coefficient (hOTR-GFP in HEK293 cells [7]; 1 nM tracer, HEK293-hOTR-GFP, 50 Hz, tracer bound to hOTR, mean ± SEM): 0.206 ± 0.017 µm^2 s^−1
Average number of tracks (per cell) (hOTR-GFP in HEK293 cells [7]; HEK293-hOTR-GFP cells, N=9 cells, 3 independent experiments): 4884 ± 1718

Compound: CC[C@H](C)[C@@H]1NC(=O)[C@H](Cc2ccc(O)cc2)NC(=O)CCSSC[C@@H](C(=O)N2CCC[C@H]2C(=O)N[C@@H](CCCNC(=O)CCOCCOCCOCCOCCOCCNC(=O)[C@H](N)CCCCNC(=O)CCCCC[N+]2=C(C=CC=C3N(CC)c4ccc(S(=O)(=O)[O-])cc4C3(C)C)C(C)(C)c3cc(S(=O)(=O)O)ccc32)C(=O)NCC(N)=O)NC(=O)[C@H](CC(N)=O)NC(=O)[C@H](CCC(N)=O)NC1=O [Compound 8, d(Orn)^8OT‐[PEG5‐k^ε‐Cy3s]^8] ([Mpa]YIQNCP[Orn]([PEG5-d(εLys)-X1])G-NH2; disulfide 1-6)
Fluorescent signals and internalization in hV1aR-containing cells [8]: displayed fluorescent signals and internalization
Cy3s signal accumulation in hOTR-expressing cells (hOTR-GFP in HEK293 cells [4]; post ICC, normalized to control): significant concentration‐dependent accumulation

Further lines, with some results ahead:

Concentration from which tracer accumulation and GFP internalization were observed (hOTR-GFP in HEK293 cells [4]; hOTR-GFP HEK293 cells): ≥ 10 nM
Compound: CC[C@H](C)[C@@H]1NC(=O)[C@H](Cc2ccc(O)cc2)NC(=O)CCSSC[C@@H](C(=O)N2CCC[C@H]2C(=O)N[C@@H](CCCNC(=O)[C@H](N)CCCCNC(=O)[C@H](N)CCCCNC(=O)CCCCC[N+]2=C(C=CC=CC=C3N(CC)c4ccc(S(=O)(=O)O)cc4C3(C)C)C(C)(C)c3cc(S(=O)(=O)[O-])ccc32)C(=O)NCC(N)=O)NC(=O)[C@H](CC(N)=O)NC(=O)[C@H](CCC(N)=O)NC1=O [Compound 5] ([Mpa]YIQNCP[Orn]([d(εLys)-d(εLys)-X3])G-NH2; disulfide 1-6)
Internalization in parent HEK293 cells [2]: nor was it internalized into the cytoplasm
pCREB induction in parent HEK293 cells [2]: did not affect pCREB induction
Concentration from which CREB phosphorylation was observed [3]: ≥ 10 nM

hOTR-GFP internalization (hOTR-GFP in HEK293 cells [4]): significant hOTR‐GFP internalization
Tracer retention after ICC protocols (hOTR-GFP in HEK293 cells [4]): washout after ICC protocols
Tracer signal after prolonged stimulation (hOTR-GFP in HEK293 cells [4]): scarcely detectable
Compound: CC[C@H](C)[C@@H]1NC(=O)[C@H](Cc2ccc(O)cc2)NC(=O)CCSSC[C@@H](C(=O)N2CCC[C@H]2C(=O)N[C@@H](CCCNC(=O)CCOCCOCCOCCOCCOCCNC(=O)CCCCC[N+]2=C(C=CC=CC=C3N(CC)c4ccc(S(=O)(=O)O)cc4C3(C)C)C(C)(C)c3cc(S(=O)(=O)[O-])ccc32)C(=O)NCC(N)=O)NC(=O)[C@H](CC(N)=O)NC(=O)[C@H](CCC(N)=O)NC1=O [Compound 3, d(Orn)^8OT‐[PEG5‐Cy5s]^8] ([Mpa]YIQNCP[Orn]([PEG5-X3])G-NH2; disulfide 1-6)

Ki (hOTR [1]; read-out: Ki hOTR): 1.5 ± 0.6 nM
Compound: CC[C@H](C)[C@@H]1NC(=O)[C@H](Cc2ccc(O)cc2)NC(=O)CCSSC[C@@H](C(=O)N2CCC[C@H]2C(=O)N[C@@H](CCCNC(=O)CCOCCOCCOCCOCCOCCNC(=O)CCCCC[N+]2=C(C=CC=C3N(CC)c4ccc(S(=O)(=O)[O-])cc4C3(C)C)C(C)(C)c3cc(S(=O)(=O)O)ccc32)C(=O)NCC(N)=O)NC(=O)[C@H](CC(N)=O)NC(=O)[C@H](CCC(N)=O)NC1=O [Compound 4, d(Orn)^8OT‐[PEG5‐Cy3s]^8] ([Mpa]YIQNCP[Orn]([PEG5-X1])G-NH2; disulfide 1-6)
